As a reminder, the EC50 is the concentration needed to bring the measured effect to its halfway point.

The values below come from patent US8969386B2, “Modulators of CFTR” (Vertex Pharmaceuticals Incorporated, priority 2007, dated 2015).

Bounds are passed on as bounds.

In this assay the target is T1, ΔF508-CFTR (Homo sapiens, UniProt P13569, DEL508-508).
T1 construct: expressed in transfected cells
Briefly: ΔF508-CFTR correction, membrane potential optical (FRET/VIPR) assay. Format: cell-based. The note with it: NIH3T3 mouse fibroblasts stably expressing ΔF508-CFTR; for Emax: read-out: % Efficacy. An excerpt: Assays for Detecting and Measuring ΔF508-CFTR Correction Properties of Compounds
Membrane potential optical methods for assaying ΔF508-CFTR modulation properties of compounds
The optical membrane potential assay utilized voltage-sensitive FRET sensors described by Gonzalez and Tsien (See Gonzalez, J. E. and R. Y. Tsien (1995) “Voltage sensing by fluorescence resonance energy transfer in single cells” Biophys J 69(4): 1272-80, and Gonzalez, J. E. and R. Y. Tsien (1997) “Improved indicators of cell membrane potential that use fluorescence resonance energy transfer” Chem Biol 4(4): 269-77) in combination with instrumentation for measuring fluorescence changes such as the Voltage/Ion Probe Reader (VIPR) (See Gonzalez, J. E., K. Oades, et al. (1999) “Cell-based assays and instrumentation for screening ion-channel targets” Drug Discov Today 4(9): 431-439).
These voltage sensitive assays are based on the change in fluorescence resonant energy transfer (FRET) between the membrane-soluble, voltage-sensitive dye, DiSBAC2(3), and a fluorescent phospholipid, CC2-DMPE, which is attached to the outer leaflet of the plasma membrane and acts as a FRET donor. Changes in membrane potential (Vm) cause the negatively charged DiSBAC2(3) to redistribute across the plasma membrane and the amount of energy transfer from CC2-DMPE changes accordingly. The changes in fluorescence emission were monitored using VIPR™ II, which is an integrated liquid handler and fluorescent detector designed to conduct cell-based screens in 96- or 384-well microtiter plates.
1. Identification of Correction Compounds
To identify small molecules that correct the trafficking defect associated with ΔF508-CFTR; a single-addition HTS assay format was developed. The cells were incubated in serum-free medium for 16 hrs at 37° C. in the presence or absence (negative control) of test compound. As a positive control, cells plated in 384-well plates were incubated for 16 hrs at 27° C. to “temperature-correct” ΔF508-CFTR. The cells were subsequently rinsed 3× with Krebs Ringers solution and loaded with the voltage-sensitive dyes. To activate ΔF508-CFTR, 10 μM forskolin and the CFTR potentiator, genistein (20 μM), were added along with Cl^−-free medium to each well. The addition of Cl^−-free medium promoted Cl^− efflux in response to ΔF508-CFTR activation and the resulting membrane depolarization was optically monitored using the FRET-based voltage-sensor dyes.
NIH3T3 mouse fibroblasts stably expressing ΔF508-CFTR are used for optical measurements of membrane potential. The cells are maintained at 37° C. in 5% CO2 and 90% humidity in Dulbecco's modified Eagle's medium supplemented with 2 mM glutamine, 10% fetal bovine serum, 1×NEAA, β-ME, 1× pen/strep, and 25 mM HEPES in 175 cm^2 culture flasks. For all optical assays, the cells were seeded at 30,000/well in 384-well matrigel-coated plates and cultured for 2 hrs at 37° C. before culturing at 27° C. for 24 hrs for the potentiator assay. For the correction assays, the cells are cultured at 27° C. or 37° C. with and without compounds for 16-24 hours Electrophysiological Assays for assaying ΔF508-CFTR modulation properties of compounds

T1 sequence (P13569 with tags, fused parts or gaps DEL508-508): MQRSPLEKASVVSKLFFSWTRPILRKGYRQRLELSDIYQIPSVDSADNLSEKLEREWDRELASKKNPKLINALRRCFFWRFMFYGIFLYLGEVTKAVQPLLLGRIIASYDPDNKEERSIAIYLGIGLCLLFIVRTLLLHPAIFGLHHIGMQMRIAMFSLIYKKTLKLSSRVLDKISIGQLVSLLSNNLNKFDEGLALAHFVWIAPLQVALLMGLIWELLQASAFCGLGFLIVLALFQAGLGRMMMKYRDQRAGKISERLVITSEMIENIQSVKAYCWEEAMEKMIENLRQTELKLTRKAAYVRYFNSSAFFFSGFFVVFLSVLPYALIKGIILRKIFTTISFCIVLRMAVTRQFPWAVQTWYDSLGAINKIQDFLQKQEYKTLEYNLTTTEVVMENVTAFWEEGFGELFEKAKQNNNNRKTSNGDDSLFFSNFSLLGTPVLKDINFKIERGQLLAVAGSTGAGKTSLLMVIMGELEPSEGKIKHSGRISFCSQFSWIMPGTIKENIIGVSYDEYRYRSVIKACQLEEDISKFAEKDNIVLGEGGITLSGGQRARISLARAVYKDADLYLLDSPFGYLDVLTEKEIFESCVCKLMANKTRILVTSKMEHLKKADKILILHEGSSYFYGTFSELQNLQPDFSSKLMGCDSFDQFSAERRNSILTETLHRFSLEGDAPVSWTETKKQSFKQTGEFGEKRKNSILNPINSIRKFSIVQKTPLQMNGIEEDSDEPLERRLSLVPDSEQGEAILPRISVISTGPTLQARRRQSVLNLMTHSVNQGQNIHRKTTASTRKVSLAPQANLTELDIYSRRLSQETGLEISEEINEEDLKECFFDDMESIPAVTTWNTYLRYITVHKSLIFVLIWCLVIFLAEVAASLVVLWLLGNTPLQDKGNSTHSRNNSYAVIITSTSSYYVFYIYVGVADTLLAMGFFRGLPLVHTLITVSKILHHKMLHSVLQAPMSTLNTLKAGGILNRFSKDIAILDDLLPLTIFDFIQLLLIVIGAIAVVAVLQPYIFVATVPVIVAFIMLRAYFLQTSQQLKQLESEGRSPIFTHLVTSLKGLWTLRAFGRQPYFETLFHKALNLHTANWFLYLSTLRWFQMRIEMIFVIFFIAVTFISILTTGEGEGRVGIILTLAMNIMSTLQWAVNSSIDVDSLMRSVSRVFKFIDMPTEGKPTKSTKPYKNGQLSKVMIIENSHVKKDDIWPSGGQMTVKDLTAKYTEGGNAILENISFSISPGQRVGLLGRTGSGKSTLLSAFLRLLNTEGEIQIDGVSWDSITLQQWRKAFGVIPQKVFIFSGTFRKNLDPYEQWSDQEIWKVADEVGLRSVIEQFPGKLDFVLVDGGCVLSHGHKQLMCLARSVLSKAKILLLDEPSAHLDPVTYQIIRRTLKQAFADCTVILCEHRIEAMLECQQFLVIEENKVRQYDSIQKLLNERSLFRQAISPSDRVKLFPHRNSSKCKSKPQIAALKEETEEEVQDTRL

In the case of `O=C(Nc1ccc(Cl)c(-c2ccc(=O)[nH]c2)n1)C1(c2ccc3c(c2)OC(F)(F)O3)CC1` [Compound 22], the EC50 was below 2000 nM and the Emax lay within 50 to 100%.

As for `Cc1ccc(NC(=O)C2(c3ccc4c(c3)OC(F)(F)O4)CC2)nc1-c1ccc(=O)n(CCS(C)(=O)=O)c1` [Compound 95], the EC50 is below 2000 nM and the Emax was above 100%.

On to `Cc1ccc(NC(=O)C2(c3ccc4c(c3)OCCO4)CC2)nc1-c1c[nH]c(=O)c(C)c1` [Compound 60], for which the EC50 is below 2000 nM and the Emax lay in the range of 50 to 100%.

In the case of `Cc1cc(NC(=O)C2(c3ccc4c(c3)OC(F)(F)O4)CC2)nc(-c2ccc(=O)[nH]c2C)c1` [Compound 117], the EC50 is below 2000 nM and the Emax is above 100%.

On to `Cc1cc(NC(=O)C2(c3ccc4c(c3)OC(F)(F)O4)CC2)nc(-c2c[nH]c(=O)c(C)c2)c1` [Compound 107], for which the EC50 was below 2000 nM and the Emax is above 100%.

Consider `Cc1cc(NC(=O)C2(c3ccc4c(c3)OC(F)(F)O4)CC2)nc(-c2ccc(=O)[nH]c2)c1C` [Compound 65], for which the EC50 is below 2000 nM and the Emax is 50 to 100%.

Consider `Cc1ncc(NC(=O)C2(c3ccc4c(c3)OC(F)(F)O4)CC2)nc1-c1ccc(=O)[nH]c1` [Compound 55], for which the EC50 is below 2000 nM and the Emax is 50 to 100%.

In the case of `Cc1cc(NC(=O)C2(c3ccc4c(c3)OC(F)(F)O4)CC2)nc(-c2ccc(=O)[nH]c2C)c1C` [Compound 108], the concentration giving a half-maximal response (EC50) is below 2000 nM and the Emax is above 100%.

As to `Cc1ccc(NC(=O)C2(c3ccc4c(c3)OC(F)(F)O4)CC2)nc1-c1ccc(=O)[nH]c1O` [Compound 28], the EC50 is below 2000 nM and the Emax lay in the range of 50 to 100%.

With `COc1ccc(-c2nc(NC(=O)C3(c4ccc5c(c4)OC(F)(F)O5)CC3)ccc2Cl)cn1` [Compound 24], the 50% effective concentration (EC50) was below 2000 nM and the Emax is above 100%.

Turning to `COc1ccc(-c2nc(NC(=O)C3(c4ccc5c(c4)OC(F)(F)O5)CC3)cc(C)c2C)cn1` [Compound 57], the EC50 is below 2000 nM and the Emax is above 100%.

Take `Cc1ccc(NC(=O)C2(c3ccc4c(c3)CCO4)CC2)nc1-c1ccc[nH]c1=O` [Compound 84]: the EC50 is below 2000 nM and the Emax was in the range of 50 to 100%.

Turning to `COc1ccc(C2(C(=O)Nc3ccc(C)c(-c4cccnc4OC)n3)CC2)cc1` [Compound 7], the EC50 is below 2000 nM and the Emax fell in the range of 50 to 100%.

On to `Cc1ccc(NC(=O)C2(c3ccc4c(c3)OC(F)(F)O4)CC2)nc1-c1ccc(=O)n(CC(=O)O)c1` [Compound 13], for which the EC50 was above 5000 nM and the Emax lay within 50 to 100%.

On to `Cc1cc(-c2nc(NC(=O)C3(c4ccc5c(c4)OC(F)(F)O5)CC3)ccc2C)cc(=O)[nH]1` [Compound 106], for which the EC50 is below 2000 nM and the Emax was above 100%.

On to `Cc1c[nH]c(=O)c(-c2nc(NC(=O)C3(c4ccc5c(c4)CCO5)CC3)ccc2C)c1` [Compound 83], for which the concentration giving a half-maximal response (EC50) is below 2000 nM and the Emax lay in the range of 50 to 100%.

Consider `Cc1cc(NC(=O)C2(c3ccc4c(c3)OC(F)(F)O4)CC2)nc(-c2cc(C)c[nH]c2=O)c1` [Compound 92], for which the EC50 is below 2000 nM and the Emax was 50 to 100%.

With `COc1ccc(C2(C(=O)Nc3ccc(C)c(-c4c[nH]c(=O)c(C)c4)n3)CC2)cc1Cl` [Compound 62], the EC50 was below 2000 nM and the Emax fell in the range of 50 to 100%.

As to `COc1cc(-c2nc(NC(=O)C3(c4ccc5c(c4)OC(F)(F)O5)CC3)cc(C)c2C)ccn1` [Compound 58], the EC50 is below 2000 nM and the Emax was above 100%.

For the compound `COc1cc(-c2nc(NC(=O)C3(c4ccc5c(c4)CCO5)CC3)cc(C)c2C)ccn1` [Compound 102], the EC50 is below 2000 nM and the Emax was in the range of 50 to 100%.

Consider `COc1ncc(C)cc1-c1nc(NC(=O)C2(c3ccc4c(c3)OC(F)(F)O4)CC2)cc(C)c1C` [Compound 88], for which the EC50 is below 2000 nM and the Emax was above 100%.

Regarding `Cc1ccc(NC(=O)C2(c3ccc4c(c3)OC(F)(F)O4)CC2)nc1-c1c[nH]c(=O)c(C(N)=O)c1` [Compound 34], the EC50 lay in the range of 2000 to 5000 nM and the Emax was in the range of 50 to 100%.

In the case of `COc1ccc(-c2cccc(NC(=O)C3(c4ccc5c(c4)OCO5)CC3)n2)cn1` [Compound 94], the EC50 was 2000 to 5000 nM and the Emax was above 100%.

Take `COc1cc(-c2cc(C)cc(NC(=O)C3(c4ccc5c(c4)OC(F)(F)O5)CC3)n2)ccn1` [Compound 3]: the EC50 was below 2000 nM and the Emax was above 100%.

Regarding `COc1cc(-c2nc(NC(=O)C3(c4ccc5c(c4)OC(F)(F)O5)CC3)ccc2C)ccn1` [Compound 11], the concentration giving a half-maximal response (EC50) was below 2000 nM and the Emax was above 100%.

Turning to `Cc1cc(NC(=O)C2(c3ccc4c(c3)OC(F)(F)O4)CC2)nc(-c2cc[nH]c(=O)c2)c1C` [Compound 67], the EC50 is below 2000 nM and the Emax was above 100%.

For `Cc1ccc(NC(=O)C2(c3ccc4c(c3)OC(F)(F)O4)CC2)nc1-c1ccn(CCO)c(=O)c1` [Compound 29], the half-maximal effective concentration (EC50) was below 2000 nM and the Emax was above 100%.

`Cc1cc(=O)[nH]cc1-c1nc(NC(=O)C2(c3ccc4c(c3)OC(F)(F)O4)CC2)ccc1C` [Compound 14]: the EC50 was below 2000 nM and the Emax lay within 50 to 100%.

Take `COc1ncc(-c2nc(NC(=O)C3(c4ccc5c(c4)OC(F)(F)O5)CC3)ccc2C)cc1Cl` [Compound 71]: the EC50 was below 2000 nM and the Emax is above 100%.

Regarding `Cc1c[nH]c(=O)c(-c2nc(NC(=O)C3(c4ccc5c(c4)OC(F)(F)O5)CC3)ccc2C)c1` [Compound 31], the EC50 is below 2000 nM and the Emax was in the range of 50 to 100%.

Turning to `Cc1ccc(NC(=O)C2(c3ccc4c(c3)OC(F)(F)O4)CC2)nc1-c1c[nH]c(=O)c(C)c1` [Compound 6], the EC50 was below 2000 nM and the Emax was above 100%.
